Where a SMILES comes first, the peptide text is derived from it.
Tests used:
[1] = molecular target: T1, Melanocortin receptor 3 (Mus musculus, UniProt P33033); experiment: Agonist activity to the mouse Melanocortin-3 receptor (mMC3R); type: functional
[2] = molecular target: Melanocyte-stimulating hormone receptor (Mus musculus, UniProt Q01727); experiment: Agonist activity to the mouse Melanocortin-1 receptor (mMC1R); type: functional
[3] = molecular target: Melanocortin receptor 5 (Mus musculus, UniProt P41149); experiment: Agonist activity towards mouse Melanocortin-5 receptor (mMC5R); type: functional
[4] = molecular target: Melanocortin receptor 4 (Mus musculus, UniProt P56450); experiment: Agonist activity to the mouse Melanocortin-4 receptor (mMC4R); type: functional
[5] = molecular target: T1, Melanocortin receptor 3; experiment: Binding constant (Ki) at mouse Melanocortin-3 receptor
[6] = molecular target: T1, Melanocortin receptor 3; experiment: Agonist activity of compound towards mouse Melanocortin-3 receptor (mMC3R); partial agonist; type: functional; conditions: read-out: pA2 (converted)

Melanocortin receptor 4, sequence (P56450 whole entry): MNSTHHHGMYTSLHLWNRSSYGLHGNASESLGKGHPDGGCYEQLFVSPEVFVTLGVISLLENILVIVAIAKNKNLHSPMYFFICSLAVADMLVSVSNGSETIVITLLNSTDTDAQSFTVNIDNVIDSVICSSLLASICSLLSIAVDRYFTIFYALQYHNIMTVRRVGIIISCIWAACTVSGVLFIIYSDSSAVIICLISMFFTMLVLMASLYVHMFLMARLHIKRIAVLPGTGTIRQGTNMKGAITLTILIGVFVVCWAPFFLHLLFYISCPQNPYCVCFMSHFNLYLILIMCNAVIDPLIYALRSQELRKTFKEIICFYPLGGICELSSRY
T1 sequence (P33033 whole entry): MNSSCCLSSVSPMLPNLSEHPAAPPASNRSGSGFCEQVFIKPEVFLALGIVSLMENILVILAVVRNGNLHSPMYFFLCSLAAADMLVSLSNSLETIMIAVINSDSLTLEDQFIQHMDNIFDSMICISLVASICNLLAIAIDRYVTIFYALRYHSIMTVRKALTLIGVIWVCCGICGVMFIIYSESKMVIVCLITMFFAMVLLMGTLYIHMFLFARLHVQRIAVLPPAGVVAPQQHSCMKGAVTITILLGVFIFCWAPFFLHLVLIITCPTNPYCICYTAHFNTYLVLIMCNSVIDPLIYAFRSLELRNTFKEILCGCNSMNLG
Melanocyte-stimulating hormone receptor, sequence (Q01727 whole entry): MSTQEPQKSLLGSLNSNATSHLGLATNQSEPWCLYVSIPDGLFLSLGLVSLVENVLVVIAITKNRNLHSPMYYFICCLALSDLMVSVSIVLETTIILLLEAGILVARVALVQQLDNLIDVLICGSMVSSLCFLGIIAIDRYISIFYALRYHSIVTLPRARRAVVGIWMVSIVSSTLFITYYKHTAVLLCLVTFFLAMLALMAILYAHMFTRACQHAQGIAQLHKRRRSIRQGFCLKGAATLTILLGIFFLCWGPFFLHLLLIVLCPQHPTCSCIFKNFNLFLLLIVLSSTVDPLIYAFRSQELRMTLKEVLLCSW
Melanocortin receptor 5, sequence (P41149 whole entry): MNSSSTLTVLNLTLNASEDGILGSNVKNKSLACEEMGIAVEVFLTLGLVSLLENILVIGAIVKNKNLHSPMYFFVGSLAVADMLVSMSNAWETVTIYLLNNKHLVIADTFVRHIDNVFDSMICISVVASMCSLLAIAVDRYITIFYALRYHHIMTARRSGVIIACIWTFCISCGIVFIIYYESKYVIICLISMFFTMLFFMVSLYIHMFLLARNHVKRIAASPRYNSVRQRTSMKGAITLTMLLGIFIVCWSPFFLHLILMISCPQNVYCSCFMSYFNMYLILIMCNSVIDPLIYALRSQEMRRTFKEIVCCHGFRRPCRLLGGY

Row | EC50 [1] [µM] | EC50 [2] [µM] | EC50 [3] [µM] | EC50 [4] [µM] | Ki [5] [µM] | Kb [6] [µM] | Compound
1 | > 100 | 22 | 7.4 |  |  |  | CC(=O)N[C@@H](Cc1c[nH]cn1)C(=O)N[C@@H](Cc1ccc2ccccc2c1)C(=O)N[C@@H](CCCN=C(N)N)C(=O)N[C@@H](Cc1c[nH]c2ccccc12)C(N)=O
2 | 44 | 14.7 | 4 | 40.5 |  |  | CC(=O)N[C@@H](Cc1cnc[nH]1)C(=O)N[C@H](C(=O)N[C@@H](CCCNC(=N)N)C(=O)N[C@@H](Cc1c[nH]c2ccccc12)C(N)=O)c1ccccc1
3 | 2.05 | 0.0284 | 0.0116 | 0.0684 |  |  | CC(=O)N[C@@H](Cc1c[nH]cn1)C(=O)N[C@H](Cc1ccc(-c2ccccc2)cc1)C(=O)N[C@@H](CCCN=C(N)N)C(=O)N[C@@H](Cc1c[nH]c2ccccc12)C(N)=O
4 |  | 0.167 | 0.0347 |  | 0.295 | 0.295 | CC(=O)N[C@@H](Cc1cnc[nH]1)C(=O)N[C@H](Cc1ccc2ccccc2c1)C(=O)N[C@@H](CCCNC(=N)N)C(=O)N[C@@H](Cc1c[nH]c2ccccc12)C(N)=O
5 | > 100 | 53.6 | 21.3 | > 100 |  |  | CC(=O)N[C@@H](Cc1c[nH]cn1)C(=O)N1Cc2ccccc2C[C@H]1C(=O)N[C@@H](CCCN=C(N)N)C(=O)N[C@@H](Cc1c[nH]c2ccccc12)C(N)=O
6 | > 100 | 41.7 | 41.2 | > 100 |  |  | CC(=O)N[C@@H](Cc1c[nH]cn1)C(=O)N[C@@H](Cc1c[nH]cn1)C(=O)N[C@@H](CCCN=C(N)N)C(=O)N[C@@H](Cc1c[nH]c2ccccc12)C(N)=O (Ac-HHRW-NH2)
7 | > 100 | 16.9 |  | > 100 |  |  | CC(=O)N[C@@H](Cc1c[nH]cn1)C(=O)N[C@@H](C(=O)N[C@@H](CCCN=C(N)N)C(=O)N[C@@H](Cc1c[nH]c2ccccc12)C(N)=O)c1ccccc1
8 | > 100 | 10.6 | 5.5 |  |  |  | CC(=O)N[C@@H](Cc1cnc[nH]1)C(=O)N[C@@H](Cc1ccc(-c2ccccc2)cc1)C(=O)N[C@@H](CCCNC(=N)N)C(=O)N[C@@H](Cc1c[nH]c2ccccc12)C(N)=O
9 | > 100 | 61.4 | 32.7 | > 100 |  |  | CC(=O)N[C@@H](Cc1cnc[nH]1)C(=O)N[C@@H](Cc1ccc(O)cc1)C(=O)N[C@@H](CCCNC(=N)N)C(=O)N[C@@H](Cc1c[nH]c2ccccc12)C(N)=O (Ac-HYRW-NH2)
10 | > 100 | 1.5 | 4.3 | 5 |  |  | CC(=O)N[C@@H](Cc1c[nH]cn1)C(=O)N[C@@H](C(=O)N[C@@H](CCCN=C(N)N)C(=O)N[C@@H](Cc1c[nH]c2ccccc12)C(N)=O)C(c1ccccc1)c1ccccc1
11 | 7.8 | 5.8 | 2.07 | 7.13 |  |  | CC(=O)N[C@@H](Cc1c[nH]cn1)C(=O)NC1(C(=O)N[C@@H](CCCN=C(N)N)C(=O)N[C@@H](Cc2c[nH]c3ccccc23)C(N)=O)CCc2ccccc2C1 (stereo in doubt; 26)
12 | > 100 | 15.2 | 11.2 | > 100 |  |  | CC(=O)N[C@@H](Cc1cnc[nH]1)C(=O)N[C@@H](Cc1cccc2ccccc12)C(=O)N[C@@H](CCCNC(=N)N)C(=O)N[C@@H](Cc1c[nH]c2ccccc12)C(N)=O
13 | 4.1 | 0.356 | 0.0514 | 0.303 |  |  | CC(=O)N[C@@H](Cc1cnc[nH]1)C(=O)N[C@H](Cc1cccc2ccccc12)C(=O)N[C@@H](CCCNC(=N)N)C(=O)N[C@@H](Cc1c[nH]c2ccccc12)C(N)=O
14 | > 100 | 33.4 | 18.4 | 34.3 |  |  | CC(=O)N[C@@H](Cc1cnc[nH]1)C(=O)N[C@@H](Cc1c[nH]c2ccccc12)C(=O)N[C@@H](CCCNC(=N)N)C(=O)N[C@@H](Cc1c[nH]c2ccccc12)C(N)=O
15 | > 100 | 33.1 | 11.8 | > 100 |  |  | CC(=O)N[C@@H](Cc1c[nH]cn1)C(=O)N[C@@H](CCc1ccccc1)C(=O)N[C@@H](CCCN=C(N)N)C(=O)N[C@@H](Cc1c[nH]c2ccccc12)C(N)=O
16 | > 100 | 36.7 | 9.7 | 24.4 |  |  | CC(=O)N[C@@H](Cc1cnc[nH]1)C(=O)N[C@@H](Cc1ccncc1)C(=O)N[C@@H](CCCNC(=N)N)C(=O)N[C@@H](Cc1c[nH]c2ccccc12)C(N)=O
17 | > 100 | 30 | > 100 | > 100 |  |  | CC(=O)N[C@@H](Cc1cnc[nH]1)C(=O)N[C@@H](C)C(=O)N[C@@H](CCCNC(=N)N)C(=O)N[C@@H](Cc1c[nH]c2ccccc12)C(N)=O (Ac-HARW-NH2)
18 |  |  |  | 0.00211 |  |  | CC(=O)N[C@@H](Cc1c[nH]cn1)C(=O)N[C@@H](Cc1ccccc1)C(=O)N[C@@H](CCCN=C(N)N)C(=O)N[C@@H](Cc1c[nH]c2ccccc12)C(N)=O
19 | > 100 | 19 | > 100 | > 100 |  |  | CC(=O)N[C@@H](Cc1cnc[nH]1)C(=O)N[C@H](C(=O)N[C@@H](CCCNC(=N)N)C(=O)N[C@@H](Cc1c[nH]c2ccccc12)C(N)=O)C(c1ccccc1)c1ccccc1
20 | > 100 | 40.8 | > 100 | > 100 |  |  | CC(=O)N[C@@H](Cc1c[nH]cn1)C(=O)N1Cc2ccccc2C[C@@H]1C(=O)N[C@@H](CCCN=C(N)N)C(=O)N[C@@H](Cc1c[nH]c2ccccc12)C(N)=O
21 | 9.9 | 2.35 | 0.263 | 1.78 |  |  | CC(=O)N[C@@H](Cc1c[nH]cn1)C(=O)NC1(C(=O)N[C@@H](CCCN=C(N)N)C(=O)N[C@@H](Cc2c[nH]c3ccccc23)C(N)=O)CCc2ccccc2C1 (stereo in doubt; 25)
22 | > 100 | 25.1 | 6.95 | > 100 |  |  | CC(=O)N[C@@H](Cc1c[nH]cn1)C(=O)N[C@H](Cc1c[nH]c2ccccc12)C(=O)N[C@@H](CCCN=C(N)N)C(=O)N[C@@H](Cc1c[nH]c2ccccc12)C(N)=O
23 | > 100 | 22.9 | 36.1 | > 100 |  |  | CC(=O)N[C@@H](Cc1cnc[nH]1)C(=O)N[C@@H](Cc1cccnc1)C(=O)N[C@@H](CCCNC(=N)N)C(=O)N[C@@H](Cc1c[nH]c2ccccc12)C(N)=O
24 | > 100 | 6.25 | 2.8 | 11.1 |  |  | CC(=O)N[C@@H](Cc1cnc[nH]1)C(=O)N[C@H](CCc1ccccc1)C(=O)N[C@@H](CCCNC(=N)N)C(=O)N[C@@H](Cc1c[nH]c2ccccc12)C(N)=O
25 | 34 | 3.2 | 0.631 | 2.4 |  |  | CC(=O)N[C@@H](Cc1cnc[nH]1)C(=O)N[C@H](Cc1ccc(O)cc1)C(=O)N[C@@H](CCCNC(=N)N)C(=O)N[C@@H](Cc1c[nH]c2ccccc12)C(N)=O

From ChEMBL document CHEMBL1135504, “Structure-activity relationships of the melanocortin tetrapeptide Ac-His-DPhe-Arg-Trp-NH(2) at the mouse melanocortin receptors: part 2 modifications at the Phe position” (J Med Chem, 2002)
